In patent US20260007599A1, “TICAGRELOR IV FORMULATIONS FOR USE IN THE TREATMENT OF GRAM-POSITIVE BACTEREMIA” (Hyloris Developments SA, priority 2023, published 2026):

Key:
[1] = Solubilization of ticagrelor in unbuffered cyclodextrin stock solutions in milli Q water, appearance on shaking platform; assay type: physicochemical;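 as to Appearance in cyclodextrin: plus means clear and fully dissolved while plus-minus means clear solution with precipitation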
Protocol: In a first example two different types of cyclodextrin were used and compared for the solubilization of ticagrelor. An unbuffered stock solution of HPBCD or SBECD was made in water at the target concentrations of 20 w/w %, 25 w/w %, 30 w/w %, 35 w/w % and 40 w/w %. Ticagrelor was added slowly under vortex. Ticagrelor was used at concentrations of 5, 10 or 14 mg/ml in milli Q water. The ticagrelor-cyclodextrin solutions were left on a shaking platform. No sonification or heat was applied.

[2] = Physical stability and diluent tests of ticagrelor 5 mg/ml batches with varying HPβCD; assay type: physicochemical; conditions: for Appearance in 5% dextrose / Appearance in NaCl 0.9%: diluted to ticagrelor 0.1 mg/ml; for Appearance, undiluted: ticagrelor 5 mg/ml
Protocol: 5 mg/ml ticagrelor-cyclodextrin solutions with varying amounts of HPβCD were diluted with normal saline, 5% dextrose solution or Ringer's lactate solution. The stability was screened. The ticagrelor concentration when diluted into dextrose or saline was 0.1 mg/ml.

[3] = phosphate buffered solution at pH 7.4; after 1 month under normal laboratory conditions of light and temperature; cited from earlier work
[4] = test system: vancomycin-resistant E. Faecalis (VRE); conditions: ex-vivo; cited from earlier work

## CCCSc1nc(N[C@@H]2C[C@H]2c2ccc(F)c(F)c2)c2nnn([C@@H]3C[C@H](OCCO)[C@@H](O)[C@H]3O)c2n1 [ticagrelor, (1S,2S,3R,5S)-3-{7-[(1R,2S)-2-(3,4-difluorophenyl)cyclopropylamino]5-(propylthio)-3H-(1,2,3)triazolo (4,5-D)pyrimidin-3-yl}-5-(2 hydroxyethoxy) cyclopentane-1,2-diol]
[1]; HPβCD 35% w/w, ticagrelor 10 mg/ml, after 3 h of shaking
  Appearance in cyclodextrin: +/−
[1]; HPβCD 35% w/w, ticagrelor 10 mg/ml, after overnight shaking
  Appearance in cyclodextrin: + (clear, appeared completely dissolved)
[1]; HPβCD 35% w/w, ticagrelor 14 mg/ml, after 5 min of shaking
  Appearance in cyclodextrin: − (translucent solution with precipitation)
[1]; HPβCD 35% w/w, ticagrelor 14 mg/ml, after 30 min of shaking
  Appearance in cyclodextrin: +/−
[1]; HPβCD 35% w/w, ticagrelor 14 mg/ml, after 60 min of shaking
  Appearance in cyclodextrin: +/−
[1]; HPβCD 35% w/w, ticagrelor 14 mg/ml, after 3 h of shaking
  Appearance in cyclodextrin: +/−
[1]; HPβCD 35% w/w, ticagrelor 14 mg/ml, after overnight shaking
  Appearance in cyclodextrin: +/−
[1]; HPβCD 40% w/w, ticagrelor 5 mg/ml, after 5 min of shaking
  Appearance in cyclodextrin: + (clear, appeared completely dissolved)
[1]; HPβCD 40% w/w, ticagrelor 5 mg/ml, after 30 min of shaking
  Appearance in cyclodextrin: + (clear, appeared completely dissolved)
[1]; HPβCD 40% w/w, ticagrelor 5 mg/ml, after 60 min of shaking
  Appearance in cyclodextrin: + (clear, appeared completely dissolved)
[1]; HPβCD 40% w/w, ticagrelor 5 mg/ml, after 3 h of shaking
  Appearance in cyclodextrin: + (clear, appeared completely dissolved)
[1]; HPβCD 40% w/w, ticagrelor 5 mg/ml, after overnight shaking
  Appearance in cyclodextrin: + (clear, appeared completely dissolved)
[1]; HPβCD 40% w/w, ticagrelor 10 mg/ml, after 5 min of shaking
  Appearance in cyclodextrin: − (translucent solution with precipitation)
[1]; HPβCD 40% w/w, ticagrelor 10 mg/ml, after 30 min of shaking
  Appearance in cyclodextrin: +/−
[1]; HPβCD 40% w/w, ticagrelor 10 mg/ml, after 60 min of shaking
  Appearance in cyclodextrin: +/−
[1]; HPβCD 40% w/w, ticagrelor 10 mg/ml, after 3 h of shaking
  Appearance in cyclodextrin: +/−
[1]; HPβCD 40% w/w, ticagrelor 10 mg/ml, after overnight shaking
  Appearance in cyclodextrin: + (clear, appeared completely dissolved)
[1]; HPβCD 40% w/w, ticagrelor 14 mg/ml, after 5 min of shaking
  Appearance in cyclodextrin: − (translucent solution with precipitation)
[1]; HPβCD 40% w/w, ticagrelor 14 mg/ml, after 30 min of shaking
  Appearance in cyclodextrin: +/−
[1]; HPβCD 40% w/w, ticagrelor 14 mg/ml, after 60 min of shaking
  Appearance in cyclodextrin: +/−
[1]; HPβCD 40% w/w, ticagrelor 14 mg/ml, after 3 h of shaking
  Appearance in cyclodextrin: +/−
[1]; SBECD 35% w/w, ticagrelor 5 mg/ml, after 5 min of shaking
  Appearance in cyclodextrin: − (translucent solution with precipitation)
[1]; SBECD 35% w/w, ticagrelor 5 mg/ml, after 30 min of shaking
  Appearance in cyclodextrin: +/−
[1]; SBECD 35% w/w, ticagrelor 5 mg/ml, after 60 min of shaking
  Appearance in cyclodextrin: +/−
[1]; SBECD 35% w/w, ticagrelor 5 mg/ml, after 3 h of shaking
  Appearance in cyclodextrin: +/−
[1]; SBECD 35% w/w, ticagrelor 5 mg/ml, after overnight shaking
  Appearance in cyclodextrin: − (translucent solution with precipitation)
[1]; SBECD 35% w/w, ticagrelor 10 mg/ml, after 5 min of shaking
  Appearance in cyclodextrin: − (translucent solution with precipitation)
[1]; SBECD 35% w/w, ticagrelor 10 mg/ml, after 30 min of shaking
  Appearance in cyclodextrin: − (translucent solution with precipitation)
[1]; SBECD 35% w/w, ticagrelor 10 mg/ml, after 60 min of shaking
  Appearance in cyclodextrin: − (translucent solution with precipitation)
[1]; SBECD 35% w/w, ticagrelor 10 mg/ml, after 3 h of shaking
  Appearance in cyclodextrin: − (translucent solution with precipitation)
[1]; SBECD 35% w/w, ticagrelor 10 mg/ml, after overnight shaking
  Appearance in cyclodextrin: − (translucent solution with precipitation)
[1]; SBECD 35% w/w, ticagrelor 14 mg/ml, after 5 min of shaking
  Appearance in cyclodextrin: − (translucent solution with precipitation)
[1]; SBECD 35% w/w, ticagrelor 14 mg/ml, after 30 min of shaking
  Appearance in cyclodextrin: − (translucent solution with precipitation)
[1]; SBECD 35% w/w, ticagrelor 14 mg/ml, after 60 min of shaking
  Appearance in cyclodextrin: − (translucent solution with precipitation)
[1]; SBECD 35% w/w, ticagrelor 14 mg/ml, after 3 h of shaking
  Appearance in cyclodextrin: − (translucent solution with precipitation)
[1]; SBECD 35% w/w, ticagrelor 14 mg/ml, after overnight shaking
  Appearance in cyclodextrin: − (translucent solution with precipitation)
[1]; SBECD 40% w/w, ticagrelor 10 mg/ml, after 5 min of shaking
  Appearance in cyclodextrin: − (translucent solution with precipitation)
[1]; SBECD 40% w/w, ticagrelor 10 mg/ml, after 30 min of shaking
  Appearance in cyclodextrin: − (translucent solution with precipitation)
[1]; SBECD 40% w/w, ticagrelor 10 mg/ml, after 60 min of shaking
  Appearance in cyclodextrin: − (translucent solution with precipitation)
[1]; SBECD 40% w/w, ticagrelor 10 mg/ml, after 3 h of shaking
  Appearance in cyclodextrin: − (translucent solution with precipitation)
[1]; SBECD 40% w/w, ticagrelor 10 mg/ml, after overnight shaking
  Appearance in cyclodextrin: − (translucent solution with precipitation)
[1]; SBECD 40% w/w, ticagrelor 14 mg/ml, after 5 min of shaking
  Appearance in cyclodextrin: − (translucent solution with precipitation)
[1]; SBECD 40% w/w, ticagrelor 14 mg/ml, after 30 min of shaking
  Appearance in cyclodextrin: − (translucent solution with precipitation)
[1]; SBECD 40% w/w, ticagrelor 14 mg/ml, after 60 min of shaking
  Appearance in cyclodextrin: − (translucent solution with precipitation)
[1]; SBECD 40% w/w, ticagrelor 14 mg/ml, after 3 h of shaking
  Appearance in cyclodextrin: − (translucent solution with precipitation)
[1]; SBECD 40% w/w, ticagrelor 14 mg/ml, after overnight shaking
  Appearance in cyclodextrin: − (translucent solution with precipitation)
[1]; ticagrelor 5 mg/ml in HPBCD 40%, 35% or 30% w/w in milliQ water, at least three days at room temperature and several days at 4° C.
  Appearance on standing: remained clear
[2]; HPβCD 20-40% w/w, without the use of heat
  ticagrelor concentration that could be dissolved: 5 to 15 mg/mL
[2]; HPβCD 22.5% w/w
  Appearance in 5% dextrose: Clear solution
  Appearance in NaCl 0.9%: Turbid
[2]; HPβCD 25.0% w/w
  Appearance in 5% dextrose: Clear solution
  Appearance in NaCl 0.9%: Turbid
[2]; HPβCD 27.5% w/w
  Appearance in 5% dextrose: Clear solution
  Appearance in NaCl 0.9%: Turbid
[2]; HPβCD 30.0% w/w
  Appearance in 5% dextrose: Clear solution
  Appearance in NaCl 0.9%: Turbid
  Appearance, undiluted: Clear solution
[2]; HPβCD 32.5% w/w
  Appearance in 5% dextrose: Clear solution
  Appearance in NaCl 0.9%: Clear solution
  Appearance, undiluted: Clear solution
[2]; in the refrigerator, HPβCD concentration as low as 22.5% w/w
  stability of undiluted concentrate: remained stable
[3]
  ticagrelor concentrations in solution: declined
[4]
  minimal bactericidal concentration: 20 microgram/ml
